From patent US10328027B2, “Assisted particle size reduction process” (HOVIONE INTERNATIONAL LTD, priority 2014, dated 2019) come the findings set out here.

Each structure is given as a SMILES string.

The series in a line: Particle size distribution (Dv10, Dv50, Dv90, span) of processed API particles. It counts as physicochemical. From the text:
The most common approach for expressing particle size results is to report Dv10, Dv50, and Dv90 values based on a volume distribution. The span calculation [(Dv90−Dv10)/Dv50] is the most common format to express distribution width.
The terms Dv10, Dv50, and Dv90 as discussed herein are known to those skilled in the art. Dv50 refers to the maximum particle diameter below which 50% of the sample volume exists. Dv90 refers to the maximum particle diameter below which 90% of the sample volume exists. Dv10 refers to the maximum particle diameter below which 10% of the sample volume exists. The term particle size distribution span refers to the result of the calculation [(Dv90−Dv10)/Dv50].

Setting [1] is: Comparison, process of WO2011131947 (water), product isolated by spray drying (45° C.).
Where [2] appears, read: Comparison, process of WO2011131947, suspension in anti-solvent water, after size reduction (750 bar, 45 cycles).
[3] abbreviates: Example 2, invention, product isolated by spray drying (45° C.).
Where [4] appears, read: Example 2, invention, suspension in water/acetone, after particle size reduction (microfluidizer 750 bar, 45 cycles).
Where [5] appears, read: Example 2, invention, water/acetone, after aging for 22 hours.
[6] abbreviates: Example 1, after aging for 20 hours without stirring at room temperature.
The mark [7] stands for this setting: Example 1, product isolated by spray drying (100° C.) after distillation to approx. 100% heptane.
Setting [8] is: Example 1, suspension in n-heptane/ethyl acetate, after particle size reduction (microfluidizer 400 bar, 50 cycles).

`CCC(=O)O[C@]1(C(=O)SCF)[C@H](C)C[C@H]2[C@@H]3C[C@H](F)C4=CC(=O)C=C[C@]4(C)[C@@]3(F)[C@@H](O)C[C@@]21C` [Fluticasone propionate]: the Dv10 was determined as 0.99 μm under setting [1]; 1.28 μm under setting [2]; 1.38 μm under setting [3]; 0.92 μm under setting [4]; 1.42 μm under setting [5]. In addition, the Dv50 under setting [1] is 1.94 μm; the Dv50 under setting [2] is 2.44 μm; the Dv50 under setting [3] was determined as 2.42 μm; the Dv50 under setting [4] came out at 1.81 μm; the Dv50 under setting [5] is on record as 2.53 μm. Besides, the Dv90 runs as follows: under setting [1], 3.60 μm; under setting [2], 4.45 μm; under setting [3], 4.18 μm; under setting [4], 3.39 μm; under setting [5], 4.43 μm. Also, the “span [(Dv90-Dv10)/Dv50]” value stood at 1.4 under setting [1]; 1.3 under setting [2]; 1.2 under setting [3]; 1.4 under setting [4]; 1.2 under setting [5].
Regarding `C[N+]1(C)[C@@H]2C[C@@H](OC(=O)C(O)(c3cccs3)c3cccs3)C[C@H]1[C@@H]1O[C@@H]12` [Tiotropium Bromide], under setting [6], the Dv10 was determined as 0.78 μm, the Dv50 amounted to 3.33 μm, the Dv90 was 7.45 μm and the “span [(Dv90-Dv10)/Dv50]” value turned out to be 2.0. Moreover, under setting [7], the Dv10 worked out at 0.83 μm, the Dv50 was 3.02 μm, the Dv90 is on record as 7.05 μm and the “span [(Dv90-Dv10)/Dv50]” value was found to be 2.1. Further, under setting [8], the Dv10 is 0.67 μm, the Dv50 is on record as 2.98 μm, the Dv90 turned out to be 7.09 μm and the “span [(Dv90-Dv10)/Dv50]” value is reported as 2.2.
